Assays:
Type in all cases: in vivo, mouse
apoE−/− mice [1] = assay: Atherosclerotic lesions in aortas (Oil-Red-O staining) of apoE−/− mice on western diet; details: for atherosclerotic lesion area per full aorta: p<0.05 vs. control, FIG. 2(a)
Procedure: (§1) apoE−/− mice (a commonly used model of hypercholesterolemia and atherosclerosis) were purchased from Jackson Labs. At 6 weeks of age, the mice were placed on a western diet (to further increase cholesterol levels and vascular lesions) and treatments with either phosphate buffered saline (PBS) (vehicle) or TUDCA (500 mg/kg/day, single dose, i.p.) were started.
After 3 months of western diet and treatment, mice were sacrificed and aortas were dissected and fixed in 10% buffered formalin and stained with Oil-Red-O which stains lipids.
(§2) apoE−/− mice were purchased from Jackson Labs. At 6 weeks of age, the mice were placed on a western diet and treatments with either phosphate buffered saline (PBS) (vehicle); TUDCA (50 mg/kg/day or 500 mg/kg/day, single dose, i.p.); or 4-PBA (10 mg/kg/day, 200 mg/kg/day, or 1 g/kg/day, single dose, oral gavage) were started.
After 3 months of western diet and treatment, mice were sacrificed and aortas were dissected and fixed in 10% buffered formalin and stained with Oil-Red-O. The amount of atherosclerotic lesion area per full aorta was determine and is expressed as a percent as shown in FIG. 2(a). Mice receiving vehicle (PBS) developed robust atherosclerotic lesions in the aortic arch as well as in the thoracic and abdominal parts of the aorta (0.25%±0.06). […] PBA administration at a dose of 10 mg/kg/day was also found to be effective in reducing formation of atherosclerotic lesions (0.09%±0.03, n=4, p<0.05 vs. control).

apoE−/− mice [2] = assay: Lipoprotein profile analysis of serum by HPLC in apoE−/− mice on western diet; details: Example 2, 3 months
Procedure: as §2
(§3) Blood samples were obtained from the animals described above. Lipoprotein profiles analysis was performed by HPLC (FIG. 2b), and total cholesterol levels (FIG. 2c). […] Moreover, the ability to reduce the development of atherosclerotic lesions is not dependent on the ability of a compound to reduce cholesterol.

apoE−/− mice [3] = assay: Serum total cholesterol levels in apoE−/− mice on western diet; details: 3 months
Procedure: as §1
Blood samples were obtained from the animals described above and serum cholesterol levels were determined by the Piccolo automated device with lipid panel (Abaxis, Calif.).
as §2, §3

O=C(O)CCCc1ccccc1 [PBA, 4-phenyl butyrate]
amount of atherosclerotic lesion relative to control treated animals (apoE−/− mice [1]; Example 1, about 10 mg/kg/day, similar conditions): effective in reducing the amount of atherosclerotic lesion | atherosclerotic lesion area per full aorta (apoE−/− mice [1]; Example 2, 10 mg/kg/day oral gavage, 3 months, n=4): 0.09%±0.03 | reduction of formation of atherosclerotic lesions (apoE−/− mice [1]; Example 2, higher doses (200 mg/kg/day, 1 g/kg/day), oral gavage, 3 months): no similar reduction was observed | total cholesterol or specific lipoprotein levels (apoE−/− mice [2]; 4-PBA oral gavage (10 mg/kg in FIG. 2)): no significant changes

C[C@H](CCC(=O)NCCS(=O)(=O)O)[C@H]1CC[C@H]2[C@@H]3[C@@H](O)C[C@@H]4C[C@H](O)CC[C@]4(C)[C@H]3CC[C@]12C [TUDCA, tauroursodeoxycholic acid]
Oil-Red-O staining of aortas (apoE−/− mice [1]; Example 1, 500 mg/kg/day, single dose, i.p., 3 months of western diet and treatment, vs PBS): PBS treated animals had substantially more Oil-Red-O staining | atherosclerotic lesion area per full aorta (apoE−/− mice [1]; Example 2, 50 mg/kg/day i.p., 3 months, n=3): 0.03%±0.01 | atherosclerotic lesion area per full aorta (apoE−/− mice [1]; Example 2, 500 mg/kg/day i.p., 3 months, n=3): 0.01%±0.01 | serum cholesterol levels (apoE−/− mice [3]; Example 1, 500 mg/kg/day, single dose, i.p., Piccolo lipid panel, FIG. 1, vs PBS): significantly (p<0.001) lowered | total cholesterol (apoE−/− mice [3]; Example 2, 500 mg/kg/day i.p., FIG. 2c): significant decrease | total cholesterol or specific lipoprotein levels (apoE−/− mice [2]; 50 mg/kg/day i.p.): no significant changes | HDL (apoE−/− mice [2]; 500 mg/kg/day i.p., FIG. 2b): marked increase | LDL (apoE−/− mice [2]; 500 mg/kg/day i.p., FIG. 2b): significant decrease | VLDL (apoE−/− mice [2]; 500 mg/kg/day i.p., FIG. 2b): significant decrease
